Like-named read-outs stand apart in the source and are kept apart here.
Test system: angiotensin-converting enzyme (ACE; EC. 3.4.15.1)
Assay type: biochemical
Details: for ACE inhibitory rate: HHL substrate, pH 8.3, 37 °C, HPLC-DAD 226 nm, mean ± SEM of three repeats
Procedure: The ACE inhibiting capability was evaluated according to the method described by Wang et al. ([14], which employs the hippuryl-histidilleucina tripeptide (Hip-His-Leu or HHL) as the substrate and evaluates the formation of hippuric acid (HA) by liquid chromatography (HPLC-DAD). Briefly, the commercial enzyme ACE and the substrate HHL (Sigma-Aldrich®) were dissolved in borate buffer (NaOH and boric acid) 100 mmol·L^−1, pH 8.3, supplemented with 300 mmol·L^−1 NaCl; their concentrations were 0.2 U/mL and 5 mmol·L^−1, respectively. Meanwhile, HA and captopril (standard ACE inhibitor) were dissolved in distilled water. The enzyme was pre-incubated in the presence or absence of inhibitor (isolated microginins or captopril) for […] at 37 °C, and the reaction was initiated by addition of substrate. After 30 min, the reaction was stopped by adding 250 μL of hydrochloric acid, and the sample was directly injected into the chromatographic system. […] After 5 min, the substrate was added to start the reaction.
The inhibitory rate was calculated, according to Wang et al., by I% = (A − B)/A × 100%; where A is the peak area of HA without adding ACE inhibitors; and B is the peak area of HA with the addition of ACE inhibitors. All data presented are the average of three repeats; the data are presented as means ± SEM.

Molecule	ACE inhibitory rate (captopril 0.8 µM) [%]	ACE inhibition (in words) (IC50-based comparison with other microginins)	ACE inhibitory rate (microginin 800 µg·mL^−1) [%]
C[C@H](CS)C(=O)N1CCC[C@H]1C(=O)O [captopril, reference compound]	88.25 ± 1.19		
MeAhda-L-Val-L-Leu-L-HTyr-L-Tyr [MG 770]		efficiently inhibits ACE, with activity comparable to that of other previously described microginins	92.15 ± 2.76

— publication PMC6149861, “Identification, In Vitro Testing and Molecular Docking Studies of Microginins’ Mechanism of Angiotensin-Converting Enzyme Inhibition” (Molecules : A Journal of Synthetic Chemistry and Natural …, 2017)
